Measured values reported in ChEMBL document CHEMBL1127354, “Nonpeptidic inhibitors of human leukocyte elastase. 3. Design, synthesis, X-ray crystallographic analysis, and structure-activity relationships for a series of orally active 3-amino-6-phenylpyridin-2-one trifluoromethyl ketones” (J Med Chem, 1994).

Legend:
[1] = Partition coefficient (logP); format: physicochemical; settings: octanol/water
physchem = settings: octanol/water
[2] = Time taken to reach maximum drug concentration in plasma of hamster at 40 mg/kg oral dose; format: ADME, organism-based; set-up: dose 40 mg/kg, route oral; settings: cricetinae
[3] = Time taken to reach half of the concentration in blood plasma of hamster at 40 mg/kg oral dose; format: ADME, organism-based; set-up: dose 40 mg/kg, route oral; settings: cricetinae
[4] = Time taken to reach maximum drug concentration in plasma of dog at 5 mg/kg oral dose; format: ADME, organism-based, Canis lupus familiaris; set-up: dose 5 mg/kg, route oral
[5] = Maximum concentration of unchanged drug in plasma recorded in the period 0-6 hr of postdose to hamster at 40 mg/kg oral dose; format: ADME, organism-based; set-up: dose 40 mg/kg, route oral; settings: cricetinae
[6] = Time taken to reach half of the concentration in blood plasma of dog at 5 mg/kg oral dose; format: ADME, organism-based, Canis lupus familiaris; set-up: dose 5 mg/kg, route oral
[7] = Oral bioavailability was measured at concentration of 40 mg/kg oral dose; format: ADME, organism-based; settings: eutheria, in vivo
[8] = Oral bioavailability was measured at concentration of 5 mg/kg oral dose in dog; format: ADME, organism-based, Canis lupus familiaris; settings: in vivo
[9] = Maximum concentration of unchanged drug in plasma recorded in the period 0-6 hr of postdose in dog at 5 mg/kg oral dose; format: ADME, organism-based, Canis lupus familiaris; set-up: dose 5 mg/kg, route oral
[10] = Oral bioavailability was measured at concentration of 25 mg/kg oral dose; format: ADME, organism-based; settings: eutheria, in vivo
[11] = Maximum concentration of unchanged drug in plasma recorded in the period 0-6 hr of postdose in anesthetized rat at 25 mg/kg oral dose; format: ADME, organism-based; set-up: dose 25 mg/kg, route oral
[12] = Time taken to reach half of the concentration in blood plasma of anesthetized rat at 25 mg/kg oral dose; format: ADME, organism-based; set-up: dose 25 mg/kg, route oral
[13] = Time taken to reach maximum drug concentration in plasma of anesthetized rat at 25 mg/kg oral dose; format: ADME, organism-based; set-up: dose 25 mg/kg, route oral
[14] = Maximum concentration of unchanged drug in plasma recorded in the period 0-6 hr of postdose in anesthetized rat at 60 mg/kg oral dose; format: ADME, organism-based; set-up: dose 60 mg/kg, route oral
[15] = Oral bioavailability was measured at concentration of 60 mg/kg oral dose; format: ADME, organism-based; settings: eutheria, in vivo
[16] = Time taken to reach maximum drug concentration in plasma of anesthetized rat at 60 mg/kg oral dose; format: ADME, organism-based; set-up: dose 60 mg/kg, route oral
[17] = Maximum concentration of unchanged drug in plasma recorded in the period 0-6 hr of postdose in hamster at 40 mg/kg oral dose; format: ADME, organism-based; set-up: dose 40 mg/kg, route oral; settings: cricetinae
[18] = Oral bioavailability was measured at concentration of 40 mg/kg oral dose to hamster; format: ADME, organism-based, Cricetulus griseus; settings: chinese hamster, in vivo

Structure (SMILES)	logP (physchem)	other results
CC(=O)Nc1ccc(S(=O)(=O)Nc2ccc(-c3ccccc3)n(CC(=O)NC(C(=O)C(F)(F)F)C(C)C)c2=O)cc1 (centres undefined)		logP [1]: Not detected
CC(C)C(NC(=O)Cn1c(-c2ccccc2)ccc(NC(=O)OCc2ccccn2)c1=O)C(=O)C(F)(F)F (centres undefined)	1.91	
CC(C)C(NC(=O)Cn1c(-c2ccccc2)ccc(N)c1=O)C(=O)C(F)(F)F (centres undefined)	1.74	
CC(C)C(NC(=O)Cn1c(-c2ccccc2)ccc(NC(=O)OCc2ccncc2)c1=O)C(=O)C(F)(F)F (centres undefined)	2.41	Tmax [2]: 0.25 h; half-life [3]: 1.3 h; Tmax [4]: 1 h; Cmax [5]: 2770 ng/mL; half-life [6]: 0.8 h; bioavailability [7]: 45%; bioavailability [8]: ~100%; Cmax [9]: 3150 ng/mL
CC(C)C(NC(=O)Cn1c(-c2ccccc2)ccc(NC(=O)CN2CCOCC2)c1=O)C(=O)C(F)(F)F (centres undefined)	2	
CC(C)C(NC(=O)Cn1c(-c2ccccc2)ccc(NC(=O)NCc2cc[n+]([O-])cc2)c1=O)C(=O)C(F)(F)F (centres undefined)	1.13	
CC(C)C(NC(=O)Cn1c(-c2ccccc2)ccc(NC(=O)C(F)(F)F)c1=O)C(=O)C(F)(F)F (centres undefined)	3.86	
CC(C)C(NC(=O)Cn1c(-c2ccccc2)ccc(NS(=O)(=O)Cc2ccccc2)c1=O)C(=O)C(F)(F)F (centres undefined)		logP [1]: Not detected
CC(C)C(NC(=O)Cn1c(-c2ccccc2)ccc(NC(=O)OCc2ccccc2)c1=O)C(=O)C(F)(F)F (centres undefined)		bioavailability [10]: 59%; Cmax [11]: 1890 ng/mL; half-life [12]: 3 h; Tmax [13]: 1.4 h
CC(C)C(NC(=O)Cn1c(-c2ccccc2)ccc(NC=O)c1=O)C(=O)C(F)(F)F (centres undefined)	1.84	
CC(C)C(NC(=O)Cn1c(-c2ccccc2)ccc(NC(=O)OCc2cccc(C(=O)O)c2)c1=O)C(=O)C(F)(F)F (centres undefined)		logP [1]: Not detected
CC(C)C(NC(=O)Cn1c(-c2ccccc2)ccc(NC(=O)OCc2ccc(C(=O)O)cc2)c1=O)C(=O)C(F)(F)F (centres undefined)	0.84	
CC(C)C(NC(=O)Cn1c(-c2ccccc2)ccc(NC(=O)NCc2ccc[n+]([O-])c2)c1=O)C(=O)C(F)(F)F (centres undefined)	1.48	
CC(C)C(NC(=O)Cn1c(-c2ccccc2)ccc(NC(=O)Cc2ccc(C(=O)O)cc2)c1=O)C(=O)C(F)(F)F (centres undefined)	0.35	
Cc1cc(COC(=O)Nc2ccc(-c3ccccc3)n(CC(=O)NC(C(=O)C(F)(F)F)C(C)C)c2=O)cc(C)n1 (centres undefined)	2.38	
COc1ccc(S(=O)(=O)Nc2ccc(-c3ccccc3)n(CC(=O)NC(C(=O)C(F)(F)F)C(C)C)c2=O)cc1 (centres undefined)	2.5	
CC(C)C(NC(=O)Cn1c(-c2ccccc2)ccc(NC(=O)NCc2ccncc2)c1=O)C(=O)C(F)(F)F (centres undefined)	2.16	Cmax [14]: 75 ng/mL; bioavailability [15]: 2%; Tmax [16]: 3 h
CC(C)C(NC(=O)Cn1c(-c2ccccc2)ccc(NS(=O)(=O)c2ccccc2)c1=O)C(=O)C(F)(F)F (centres undefined)	2.53	
CC(C)C(NC(=O)Cn1c(-c2ccccc2)ccc(NC(=O)NCc2cccnc2)c1=O)C(=O)C(F)(F)F (centres undefined)	2.84	
CCNc1ccc(-c2ccccc2)n(CC(=O)NC(C(=O)C(F)(F)F)C(C)C)c1=O (centres undefined)	2.37	
CC(C)C(NC(=O)Cn1c(-c2ccccc2)ccc(NC(=O)Cc2ccccc2C(=O)O)c1=O)C(=O)C(F)(F)F (centres undefined)	1.14	
CC(C)C(NC(=O)Cn1c(-c2ccccc2)ccc(NS(=O)(=O)NCc2ccccc2)c1=O)C(=O)C(F)(F)F (centres undefined)	2.57	
CC(C)C(NC(=O)Cn1c(-c2ccccc2)ccc(NC(=O)NCc2ccccn2)c1=O)C(=O)C(F)(F)F (centres undefined)	2.15	
CC(C)C(NC(=O)Cn1c(-c2ccccc2)ccc(NS(C)(=O)=O)c1=O)C(=O)C(F)(F)F (centres undefined)	1.77	
CC(C)C(NC(=O)Cn1c(-c2ccccc2)ccc(NS(N)(=O)=O)c1=O)C(=O)C(F)(F)F (centres undefined)	1.17	
CC(=O)Nc1ccc(-c2ccccc2)n(CC(=O)NC(C(=O)C(F)(F)F)C(C)C)c1=O (centres undefined)	1.78	Cmax [17]: 2780 ng/mL; Tmax [2]: 0.25 h; half-life [3]: 1.9 h; bioavailability [18]: 35%
